According to the Kinase Knowledgebase extract (Sharma et al. 2016):

Target: PIK3CA (human) (UniProt P42336)
Assay: Assessment of PIK3CA Kinase Activity

Sequence of PIK3CA (human) (P42336 whole entry, looked up): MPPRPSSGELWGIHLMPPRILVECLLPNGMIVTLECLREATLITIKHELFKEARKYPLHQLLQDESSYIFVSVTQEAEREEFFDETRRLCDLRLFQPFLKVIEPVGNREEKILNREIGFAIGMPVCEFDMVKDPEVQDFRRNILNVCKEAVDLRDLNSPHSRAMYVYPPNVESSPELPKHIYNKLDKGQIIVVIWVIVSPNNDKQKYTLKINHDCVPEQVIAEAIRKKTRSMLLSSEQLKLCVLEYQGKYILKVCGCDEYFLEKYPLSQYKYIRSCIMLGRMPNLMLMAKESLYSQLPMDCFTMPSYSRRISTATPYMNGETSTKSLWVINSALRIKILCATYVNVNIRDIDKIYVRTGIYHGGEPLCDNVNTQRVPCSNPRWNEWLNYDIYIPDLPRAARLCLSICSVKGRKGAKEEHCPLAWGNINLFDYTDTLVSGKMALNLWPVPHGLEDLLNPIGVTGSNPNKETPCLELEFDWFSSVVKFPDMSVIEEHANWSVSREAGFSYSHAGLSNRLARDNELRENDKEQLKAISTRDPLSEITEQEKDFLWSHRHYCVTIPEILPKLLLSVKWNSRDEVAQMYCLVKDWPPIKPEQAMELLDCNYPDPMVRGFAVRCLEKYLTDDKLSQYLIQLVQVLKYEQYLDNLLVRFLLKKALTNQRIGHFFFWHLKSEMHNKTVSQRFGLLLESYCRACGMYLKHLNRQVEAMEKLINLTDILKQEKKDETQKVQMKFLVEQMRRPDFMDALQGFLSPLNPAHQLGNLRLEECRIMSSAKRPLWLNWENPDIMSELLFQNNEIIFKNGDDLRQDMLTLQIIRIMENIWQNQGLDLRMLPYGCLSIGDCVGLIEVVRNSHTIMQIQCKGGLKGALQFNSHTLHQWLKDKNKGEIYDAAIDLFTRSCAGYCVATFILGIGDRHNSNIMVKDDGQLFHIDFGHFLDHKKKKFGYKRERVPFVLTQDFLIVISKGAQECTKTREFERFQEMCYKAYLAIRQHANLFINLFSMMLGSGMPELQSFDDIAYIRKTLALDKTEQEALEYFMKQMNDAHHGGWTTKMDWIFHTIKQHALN

In order of rising IC50:
1. c1ccc2c(-c3nc(N4CCOCC4)c4nc(CN5CC(N6CCOCC6)C5)sc4n3)c[nH]c2c1  396 nM
2. CN(C)C1CCN(Cc2cc3nc(-c4c[nH]c5ccccc45)nc(N4CCOCC4)c3s2)CC1  495 nM
3. CC(C)(OCCN1CCCC1)c1cc2nc(-c3c[nH]c4ccccc34)nc(N3CCOCC3)c2s1  529 nM
4. CN(C)C1CCN(Cc2cc3nc(-n4ccc5ccccc54)nc(N4CCOCC4)c3s2)CC1  562 nM
5. CN(C)C1CCN(Cc2cc3nc(N4CCc5ccccc54)nc(N4CCOCC4)c3s2)CC1  707 nM
6. CN(C)[C@@H]1CCN(Cc2nc3c(N4CCOCC4)nc(-c4c[nH]c5ccccc45)nc3n2C)C[C@@H]1F  720 nM
7. CC(C)(C(N)=O)N1CCN(Cc2cc3nc(-c4c(C#N)[nH]c5ccccc45)nc(N4CCOCC4)c3s2)CC1  809 nM
8. CN(C)C1CCN(Cc2cc3nc(-n4ccc5cc(O)ccc54)nc(N4CCOCC4)c3s2)CC1  814 nM
9. CN(C)C1CCN(Cc2cc3nc(-c4c[nH]c5ccc(F)cc45)nc(N4CCOCC4)c3s2)CC1  1330 nM
10. O=C1COC2(CCN(Cc3cc4nc(-c5c[nH]c6ccccc56)nc(N5CCOCC5)c4s3)CC2)CN1  1380 nM
11. Cc1cc2cc(F)ccc2n1-c1nc(N2CCOCC2)c2sc(CN3CCC(N(C)C)CC3)cc2n1  1600 nM
12. Cn1c(CN2CCC(N3CCOCC3)CC2)nc2c(N3CCOCC3)nc(-c3c[nH]c4ccccc34)nc21  5010 nM
13. Cn1c(CN2CCC(C(C)(C)O)CC2)nc2c(N3CCOCC3)nc(-n3c(C#N)cc4ccccc43)nc21  5300 nM
14. COCc1cc2ccccc2n1-c1nc(N2CCOCC2)c2nc(CN3CCC(C(C)(C)O)CC3)n(C)c2n1  5390 nM
